Reference: article PMC7883289, “Synthesis of Paeonol-Ozagrel Conjugate: Structure Characterization and In Vivo Anti-Ischemic Stroke potential” (Frontiers in Pharmacology, 2021)

Assay: Pharmacokinetic study after intravenous injection, LC-MS/MS of plasma
Assay type: in vivo
Conditions: rat, rats, 4.5 mg/kg
Experimental: Six rats were given POC (4.5 mg/kg) by intravenous injection, then, an approximately 1.0 ml sample of blood was obtained from the fossa orbitalis vein of rats and placed into heparin–rinsed EP pipes according to a programmed schedule at 3, 5, 10, 20, 30, 45, 60, 120, and 240 min after dosing.
Plasma (80 μL) was mixed with glibenclamide (20 μL) as the internal standard, and then 900 μL of acetonitrile was used to precipitate the protein. All samples were vortex–mixed for 5 min, then centrifuged at 15,000 r/min for 10 min. Then, 800 μL of supernatant was measured, blowed dry by nitrogen, and reconstituted with 100 μL of acetonitrile.
The Thermo Fisher Scientific Hypersil GOLD column (2.1 mm × 100 mm, 1.9 μm) was used as the analytical column; it was maintained at 30°C with 1.0 mmol/L of ammonium acetate (A) and mathanol (B) as the mobile phase, using glibenclamide as the internal standard (IS). The gradient elution program was operated as follows: 0–1.5 min, 55% B–65% B; 1.5–2.5 min, 65% B–80% B; 2.5–3.0 min, 80% B–90% B; 3.0–4.0 min, 90% B; 4.0–4.5 min, 90% B–55% B; 4.5–6.0 min, 55% B. The sample injection volume was 5.0 μL, and the flow rate set at 0.2 ml/min.
Mass spectrometry was operated with multiple reaction monitoring (MRM) in a positive ionization mode. The ion pair of POC is m/z 377.1 and 163.0; the declustering voltage (DP) is 28 eV; and the collision energy (CE) is 30 eV. The ion pair of glibenclamide is m/z 494.1 and 169.0, and the DP is 65 eV, the CE is 50 eV.

`COc1ccc(C(C)=O)c(OC(=O)C=Cc2ccc(Cn3ccnc3)cc2)c1` [POC, paeonol-ozagrel conjugate] showed an AUC(0-t) of 264 ng·h/mL, a Cmax of 465 ± 269 ng/mL and a clearance of 277 ± 62.3 mL/min/kg. For the same molecule, the half-life was 53.5 ± 19.6 min and the MRT last (read-out: MRT0-t (converted)) was 51.9 min.
